Measured values taken from patent EP0084678B1, “New compound having analgesic, antiinflammatory and mucoregulating activities, process for its production and relative pharmaceutical compositions” (AUSONIA FARMACEUTICI S.r.l., priority 1982, dated 1983).

Assays:
[1] = Acute toxicity (Litchfield and Wilcoxon method), mouse; details: Swiss, in vivo
Text: (§1) The acute toxicity has been determined in Swiss mouse and in Wistar rat for different administration routes, according to the method of Litchfield J.T. and Wilcoxon [J. Pharm. Exp. Therap. 96, 99―113, (1949)].
(§2) The results obtained are reported in the following Table I; from the same it can be pointed out how AFP 696 is endowed with a very low acute toxicity.

[2] = Acute toxicity (Litchfield and Wilcoxon method), rat; details: Wistar, in vivo
Text: as §1, §2

male Wistar rats = assay: Bronchosecretogogue activity (Mawatari technique); assay type: in vivo, rat; details: 500 mg/kg/os, FlNa = Sodium fluoresceine
Text: The bronchosecretogogue activity has been determined in male Wistar rats by per os administration according to the method of Mawatari [Mawatari H., Kagoshima Daigaku Igaku-Zasshi, 27, 561 (1976)], comparing AFP-696 with carboxymethylcysteine and sobrerol at the doses hereinafter stated.

male rabbit = assay: Mucosecretolytic activity (technique of Giraldez et al.); assay type: in vivo; details: 500 mg/kg/os
Text: The mucosecretolytic activity has been studied in the male rabbit according to the technique of Giraldez, Grass and Bruseghini (Abstr. Comp. Int. Pharm. N. 1086-Paris 1978), by administration by the oral route, comparing AFP-696 with carboxymethylcysteine and sobrerol at the dose hereinafter stated.

[3] = tested on: subplantar edema induced by carrageenin; assay: Antiinflammatory activity, subplantar edema by carrageenin; assay type: in vivo; details: rat; for MEAN LIMB VOLUME AT DIFFERENT HOURS AFTER TREATMENT 0: hour 0; for MEAN LIMB VOLUME AT DIFFERENT HOURS AFTER TREATMENT 1: hour 1; for MEAN LIMB VOLUME AT DIFFERENT HOURS AFTER TREATMENT 2: hour 2; for MEAN LIMB VOLUME AT DIFFERENT HOURS AFTER TREATMENT 3: hour 3; for MEAN LIMB VOLUME AT DIFFERENT HOURS AFTER TREATMENT 4: hour 4; for MEAN LIMB VOLUME AT DIFFERENT HOURS AFTER TREATMENT 5: hour 5; for AREA Absolute value: limb volume over 5 hours
Method: Tests have been performed on the rat, employing the test of the subplantar edema induced by carrageenin. […] and, for comparison, ASA, have been administered by oral route 30 minutes before carrageenin, at the doses hereinafter stated. After edema induction, the animals of each group have been controlled, every 60 minutes for 5 consecutives hours, in order to point out the evolution of the inflammatory process.

gastric mucose = assay: Gastrolesive action; assay type: in vivo; details: rats fasting since 18 hours, 5 hours 30 minutes after treatment
Method: Rats fasting since 18 hours have been treated by oral route with AFP-696 and, for comparison, with acetylsalicylic acid, at the doses hereinafter stated. 5 Hours and 30 minutes after treatments, the animals have been sacrificed and the stomach has been withdrawn for gastric mucose examination.

[4] = tested on: writhings by phenylquinone; assay: Analgesic activity, writhings by phenylquinone; assay type: in vivo; details: mouse; for % Inhibition in comparison with controls: writhings
Method: The test of writhings by phenylquinone in the mouse has been used. AFP-696 has been administered by oral route at the dose of 500 mg/kg in comparison with acetylsalicylic acid at the dose of […].
The two drugs have been administered per os 30 minutes after intraperitoneal injection of phenil- quinone.

[5] = tested on: cough induced by citric acid aerosol; assay: Anti-cough activity, cough induced by citric acid aerosol; assay type: in vivo, rabbits; details: cough strokes
Method: The anti-cough activity of AFP-696 has been assessed after administration by endoperitoneal route (30% in tween) on rabbits of both sexes, weighing […], according to the method of the cough induced by citric acid aerosol administration, and evaluating the mean number of cough strokes in comparison with the same basal values (Boura and coil. - Prog. Brit. Pharmac. Soc. Apr. 1970). As reference standard a group of codeine treated animals at the dose of 12.5 mg/kg has been used.

[6] = Pharmacokinetics, plasma and lung levels by gas chromatography; assay type: in vivo; details: rats
Method: Two groups of rats have been treated per os, by gastric tube, with AFP-696 at the dose of 100 mg/kg and acetylsalicylic acid at the dose of 54 mg/kg. At the moment of treatment rats were fasting since 18 hours. Rats have been then sacrificed in groups of 4 at different times: 30 min., 1 h, 2 h, 4 h, 6 h.
The concentration both of unchanged products and of their metabolites have been measured by gaschromatography in plasma and in the lung.

[7] = Solubility of the isolated product; assay type: physicochemical
Method: To 90 g of ASA in 500 ml of benzene, 120 g of thionyl chloride are added. The mixture is refluxed for three hours. At the end, the benzene is evaporated under reduced pressure to dryness. The acetylsalicyclic acid chloride so obtained is dissolved in 500 ml of anhydrous tetrahydrofuran and added with 80 g of pyridine; to this solution 85 g of sobrerol (di-trans form) are added. The reaction is completed after two hours refluxing. At the end the solvent is evaporated under reduced pressure, the residue is washed with water and extracted with ethyl ether. […] Its structure is confirmed by analytical and spectroscopical data: • Elemental analysis: for C19H24O5 (M.W. = 332.39) • calcd. % C = 68.66; H = 7.28 • found % C = 68.79; H = 7.33. • I.R. Spectrum (liquid film; values of absorption bands are expressed in cm^-1): • stretch 0-H 3550-3400 broad bands • stretch C-H aromatics alifatics 3080-2910 • stretch C = O alifat. ester 1780 • stretch C = O aromat. ester 1730 • stretch C = C 1615 • stretch C(= 0)-O acetate 1145 • stretch C(= 0)-0 arilyc 1255 • H' NMR Spectrum (recorded in CDCI3, internal references TMS; values of chemical shifts are expressed in 6): • 1.2 (d, 6H, 2(CH3)); • 1.8 (s, 3H, =C-CH3); • 1.4-2.2 (m, 6H, CH2-CH-CH2, OH mobile); • 2.3 (s, 3H, CO-CH3); • 5.3 (m, 1H, CH―O―CO); • 5.8 (m, 1H, CH=C-CH3); • 7-7.7 (m, 3H aromatics); • 8 (double d, 1H aromatic). […]

SMILES: CC(=O)Oc1ccccc1C(=O)OC1CC(C(C)(C)O)CC=C1C (stereo not drawn) [AFP-696, 2-acetoxybenzoate of 2-methyl-5-(1-hydroxy-1-methylethyl)-cyclohexen-2-yl]
- LD50 ([1]; ip): 1600 mg/kg
- LD50 ([1]; oral, os): 3500 mg/kg
- LD50 ([2]; ip): 1950 mg/kg
- LD50 ([2]; oral, os): > 4000 mg/kg
- % Increase of FlNa (*) in comparison with controls (male Wistar rats): 63.6%
- % Increase of secretion in comparison with controls (male rabbit): 39.5%
- AREA % Inhibition in comparison with controls ([3]; 500 mg/kg os): 33.0%
- MEAN LIMB VOLUME AT DIFFERENT HOURS AFTER TREATMENT 0 ([3]; 500 mg/kg os): 24.1
- MEAN LIMB VOLUME AT DIFFERENT HOURS AFTER TREATMENT 1 ([3]; 500 mg/kg os): 28.1
- MEAN LIMB VOLUME AT DIFFERENT HOURS AFTER TREATMENT 2 ([3]; 500 mg/kg os): 31.4
- MEAN LIMB VOLUME AT DIFFERENT HOURS AFTER TREATMENT 3 ([3]; 500 mg/kg os): 37.4
- MEAN LIMB VOLUME AT DIFFERENT HOURS AFTER TREATMENT 4 ([3]; 500 mg/kg os): 38.1
- MEAN LIMB VOLUME AT DIFFERENT HOURS AFTER TREATMENT 5 ([3]; 500 mg/kg os): 38.1
- AREA Absolute value ([3]; 500 mg/kg os): 183.0
- Mean ulcers' size (gastric mucose; 150 mg/kg/os): 0.7 ± 0.4 mm
- Mean No of writhings ([4]; 500 mg/kg os): 1.3 ± 0.9
- No animals with writhings ([4]; 500 mg/kg os): 3/10
- % Inhibition in comparison with controls ([4]; 500 mg/kg os): 89.8%
- % Inhibition in comparison with controls ([5]; 150 mg/kg, endoperitoneal route (30% in tween)): 82.4%
- pulmonary levels of salicylic acid ([6]; 100 mg/kg per os vs acetylsalicylic acid 54 mg/kg, lung): higher
- plasma levels of acetylsalicylic acid in comparison with the administration of acetylsalicylic acid at equimolar doses ([6]; 100 mg/kg per os vs acetylsalicylic acid 54 mg/kg, more marked in the first two hours): higher
- unchanged AFP-696 in plasma ([6]; 100 mg/kg per os, at 30 minutes and in some instance also at 1 hour): found in plasma
- solubility in organic solvents ([7]; organic solvents): easily soluble
- solubility in water ([7]; water): slightly soluble

SMILES: COc1ccc2c3c1O[C@H]1[C@@H](O)C=C[C@H]4[C@@H](C2)N(C)CC[C@@]341 [Codeine, codeine, reference compound]
- % Inhibition in comparison with controls ([5]; 12.5 mg/kg): 76.7%

SMILES: CC1=CCC(C(C)(C)O)CC1O (stereo not drawn) [Sobrerol, 2-methyl-5-(1-hydroxy-1-methyl-ethyl)-2-cyclohexen-1-ol, reference compound]
- % Increase of FlNa (*) in comparison with controls (male Wistar rats): 33.4%
- % Increase of secretion in comparison with controls (male rabbit): 36.8%

SMILES: CC(=O)Oc1ccccc1C(=O)O [Acetylsalicylic acid, acetylsalicylic acid, reference compound]
- AREA % Inhibition in comparison with controls ([3]; 250 mg/kg os): 33.6%
- MEAN LIMB VOLUME AT DIFFERENT HOURS AFTER TREATMENT 0 ([3]; 250 mg/kg os): 24.3
- MEAN LIMB VOLUME AT DIFFERENT HOURS AFTER TREATMENT 1 ([3]; 250 mg/kg os): 27.4
- MEAN LIMB VOLUME AT DIFFERENT HOURS AFTER TREATMENT 2 ([3]; 250 mg/kg os): 32.2
- MEAN LIMB VOLUME AT DIFFERENT HOURS AFTER TREATMENT 3 ([3]; 250 mg/kg os): 37.8
- MEAN LIMB VOLUME AT DIFFERENT HOURS AFTER TREATMENT 4 ([3]; 250 mg/kg os): 38.6
- MEAN LIMB VOLUME AT DIFFERENT HOURS AFTER TREATMENT 5 ([3]; 250 mg/kg os): 38.6
- AREA Absolute value ([3]; 250 mg/kg os): 181.28
- Mean ulcers' size (gastric mucose; 100 mg/kg/os): 3.9 ± 1.2 mm
- Mean No of writhings ([4]; 250 mg/kg os): 0.6 ± 0.5
- No animals with writhings ([4]; 250 mg/kg os): 1/10
- % Inhibition in comparison with controls ([4]; 250 mg/kg os): 95.3%
